The values below are quoted from earlier work in patent publication US20240158516A1, “METHODS FOR THE TREATMENT OF THYROID EYE DISEASE” (Horizon Therapeutics Ireland DAC, priority 2021, published 2024).

For data set [1] the following is noted: cited from earlier work.
The test system of another data set is tumor. Conditions: in vivo; cited from earlier work.
Another data set deals with IGF-1 R (Homo sapiens, UniProt P08069). To be noted: cited from earlier work.
For data set [2], the target named is T1, IGF-IR (Homo sapiens, UniProt P08069). Conditions: cited from earlier work.
T1 sequence (P08069 31-1367): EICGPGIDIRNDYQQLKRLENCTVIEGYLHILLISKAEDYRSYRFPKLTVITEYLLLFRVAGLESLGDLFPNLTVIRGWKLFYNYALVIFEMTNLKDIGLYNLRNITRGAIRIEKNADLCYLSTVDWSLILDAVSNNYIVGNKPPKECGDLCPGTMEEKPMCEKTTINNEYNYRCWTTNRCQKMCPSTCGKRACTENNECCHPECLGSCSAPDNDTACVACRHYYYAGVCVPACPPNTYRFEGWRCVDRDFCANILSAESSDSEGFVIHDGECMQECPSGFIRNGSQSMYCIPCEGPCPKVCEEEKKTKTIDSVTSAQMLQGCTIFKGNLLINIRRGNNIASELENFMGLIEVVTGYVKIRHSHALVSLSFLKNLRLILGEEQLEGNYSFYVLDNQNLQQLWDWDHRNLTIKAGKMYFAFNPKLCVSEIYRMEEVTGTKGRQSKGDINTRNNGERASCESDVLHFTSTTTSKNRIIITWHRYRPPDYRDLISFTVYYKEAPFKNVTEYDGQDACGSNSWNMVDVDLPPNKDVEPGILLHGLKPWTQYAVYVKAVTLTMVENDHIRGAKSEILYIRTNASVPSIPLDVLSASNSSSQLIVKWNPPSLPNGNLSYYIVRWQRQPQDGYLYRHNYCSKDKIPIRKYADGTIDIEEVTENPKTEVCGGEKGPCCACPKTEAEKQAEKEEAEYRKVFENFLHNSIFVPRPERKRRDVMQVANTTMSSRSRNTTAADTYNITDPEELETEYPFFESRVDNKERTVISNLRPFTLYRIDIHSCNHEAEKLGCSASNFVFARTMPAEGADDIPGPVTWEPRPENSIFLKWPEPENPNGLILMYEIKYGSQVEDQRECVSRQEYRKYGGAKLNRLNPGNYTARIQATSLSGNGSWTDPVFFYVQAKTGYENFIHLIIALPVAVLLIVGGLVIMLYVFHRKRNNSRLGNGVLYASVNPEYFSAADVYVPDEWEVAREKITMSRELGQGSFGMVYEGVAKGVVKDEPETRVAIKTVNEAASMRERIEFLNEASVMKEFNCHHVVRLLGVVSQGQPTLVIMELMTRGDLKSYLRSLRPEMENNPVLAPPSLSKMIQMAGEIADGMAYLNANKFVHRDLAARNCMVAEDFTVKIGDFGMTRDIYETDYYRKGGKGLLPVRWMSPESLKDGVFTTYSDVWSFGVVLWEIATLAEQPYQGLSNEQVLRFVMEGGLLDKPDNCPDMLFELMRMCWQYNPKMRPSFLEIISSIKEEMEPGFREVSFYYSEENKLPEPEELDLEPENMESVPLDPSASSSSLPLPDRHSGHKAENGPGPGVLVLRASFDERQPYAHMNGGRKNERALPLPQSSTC
In data set [3] the target is T1, IGF-IR. To be noted: cited from earlier work. This is another data set of the same source.
The conditions of data set [4]: cited from earlier work. This is another data set of the same source.
Data set [5] has as its system patients with moderate-to-severe active TED. Conditions: cited from earlier work.
The next data set relates to patients with GO (TED). To be noted: vs. 0.15 mm in the placebo group; cited from earlier work.

Like-named read-outs stand apart in the source and are kept apart here.

Chain of IGF-1 R (P08069 31-1367): as above

In the case of “Dalotuzumab: IGF-1R inhibitor antibody; HC SEQ ID NO:7, LC SEQ ID NO:8”, the T1/2 result in data set [1] (in vivo, iv) is “IV;5 days”.

As for `C[C@]1(O)C[C@@H](c2nc(-c3ccc4ccc(-c5ccccc5)nc4c3)c3c(N)nccn32)C1` [Linsitinib], in data set [1] (oral), the T1/2 result is recorded as “oral; 2-4 hrs”.

As for `N#CCc1cnc(-c2ccc3ccccc3n2)n1-c1ccnc(NC2CCCNC2)n1` (stereo not shown) [BI893923], in the data set on tumor, the anti-tumor efficacy entry is “anti-tumor efficacy” and the tolerability result is recorded as “good”.

`CN1CCC(Nc2cc(Cl)cc3c(S(=O)(=O)N4CCO[C@H](COc5ccccc5)C4)c(C(N)=O)[nH]c23)CC1` [PL-225B]: the “inhibition of IGF-1 R” value at IGF-1 R was “selectively inhibits IGF-1 R”. The T1/2 entry in data set [1] (oral) is “Oral; 21d”.

For the molecule “Cixutumumab: IGF-1R inhibitor antibody; HC SEQ ID NO:55, LC SEQ ID NO:56”, the T1/2 entry in data set [1] (IV) was “IV; 5 days”.

In the case of `Nc1ncnc2c1c(-c1ccc3[nH]c(Cc4ccccc4Cl)nc3c1)nn2[C@H]1CC[C@H](N2CCOCC2)CC1` [Example A-928605], on IGF-IR [2], the “inhibition of IGF-IR on the purified enzyme” value is listed as “potent inhibitor”. The “inhibition of intracellular IGF-IR phosphorylation” value on IGF-IR [3] was “potent inhibitor”.

As to `COc1cc(N2CCC(N)CC2)ccc1Nc1ncc(Cl)c(-c2c[nH]c3ccccc23)n1` [AZD3463], the “inhibition of IGF-1 R” value at IGF-1 R was “potent ALK/IGF-1 R inhibitor”.

Regarding `COCCN1CCN(CCn2ccc(Nc3ncc4c(n3)[C@@H](C)Cc3nn(C)c(-c5ccccc5)c3-4)n2)CC1` [BI885578], the in vivo half-life entry in data set [4] (as a result of rapid metabolic clearance) is listed as “short”. Besides, in data set [4] (in vivo), the intestinal absorption entry is recorded as “rapid” and the metabolic clearance entry is on record as “rapid”.

On to “rituximab: a CD20+ B cell-depleting agent”, for which the “reduction in proptosis compared with the ivGC results” value in data set [5] (compared with 0.6 mm mean reduction under ivGCs) is “not different”. Moreover, the “effects of rituximab versus placebo” value in data set [5] (first trial, 2015 monocenter RCT) was “negative”. In addition, the “effects of rituximab versus ivGCs” value in data set [5] (second trial, 2015 monocenter RCT) is recorded as “positive”.

Turning to “teprotumumab: fully human IGF-IR-inhibitory monoclonal antibody approved for TED; VH SEQ ID NO:90, VL SEQ ID NO:91”, the “exophthalmos decreased by an average of” value in the data set with patients with GO (TED) is reported as 2.46 mm. Further, the T1/2 entry in data set [1] (IV) is listed as “IV; 8 days”.

B1: Figitumumab: IGF-1R inhibitor antibody; HC SEQ ID NO:39, LC SEQ ID NO:40 (antibody)
heavy: EVQLLESGGGLVQPGGSLRLSCTASGFTFSSYAMNWVRQAPGKGLEWVSAISGSGGTTFYADSVKGRFTISRDNSRTTLYLQMNSLRAEDTAVYYCAKDLGWSDSYYYYYGMDVWGQGTTVTVSSASTKGPSVFPLAPCSRSTSESTAALGCLVKDYFPEPVTVSWNSGALTSGVHTFPAVLQSSGLYSLSSVVTVPSSNFGTQTYTCNVDHKPSNTKVDKTVERKCCVECPPCPAPPVAGPSVFLFPPKPKDTLMISRTPEVTCVVVDVSHEDPEVQFNWYVDGVEVHNAKTKPREEQFNSTFRVVSVLTVVHQDWLNGKEYKCKVSNKGLPAPIEKTISKTKGQPREPQVYTLPPSREEMTKNQVSLTCLVKGFYPSDIAVEWESNGQPENNYKTTPPMLDSDGSFFLYSKLTVDKSRWQQGNVFSCSVMHEALHNHYTQKSLSLSPGK
light: DIQMTQFPSSLSASVGDRVTITCRASQGIRNDLGWYQQKPGKAPKRLIYAASRLHRGVPSRFSGSGSGTEFTLTISSLQPEDFATYYCLQHNSYPCSFGQGTKLEIKRTVAAPSVFIFPPSDEQLKSGTASVVCLLNNFYPREAKVQWKVDNALQSGNSQESVTEQDSKDSTYSLSSTLTLSKADYEKHKVYACEVTHQGLSSPVTKSFNRGEC
modifications: Figitumumab Heavy Chain (HC); Figitumumab Light Chain (LC)
For the molecule B1, the T1/2 entry in data set [1] (IV) is given as “IV; 20 days”.
